Drawing on the Kinase Knowledgebase extract (Sharma et al. 2016), this text covers IC50 for 10 molecules.

In general, IC50 refers to the concentration that inhibits the measured activity by half. A high value points to a need for much substance.

One test concerns the target PIK3CA (human) (UniProt P42336). Briefly: Assessment of PIK3CA Kinase Activity.
The next test addresses PIK3CG (human) (UniProt P48736). As to the kind of experiment: Assessment of PIK3CG Kinase Activity.
Another test concerns the target PIK3CD (Human) (UniProt O00329). Briefly: Assessment of PIK3CD Kinase Activity.

Chain of PIK3CA (human) (P42336 whole entry, looked up): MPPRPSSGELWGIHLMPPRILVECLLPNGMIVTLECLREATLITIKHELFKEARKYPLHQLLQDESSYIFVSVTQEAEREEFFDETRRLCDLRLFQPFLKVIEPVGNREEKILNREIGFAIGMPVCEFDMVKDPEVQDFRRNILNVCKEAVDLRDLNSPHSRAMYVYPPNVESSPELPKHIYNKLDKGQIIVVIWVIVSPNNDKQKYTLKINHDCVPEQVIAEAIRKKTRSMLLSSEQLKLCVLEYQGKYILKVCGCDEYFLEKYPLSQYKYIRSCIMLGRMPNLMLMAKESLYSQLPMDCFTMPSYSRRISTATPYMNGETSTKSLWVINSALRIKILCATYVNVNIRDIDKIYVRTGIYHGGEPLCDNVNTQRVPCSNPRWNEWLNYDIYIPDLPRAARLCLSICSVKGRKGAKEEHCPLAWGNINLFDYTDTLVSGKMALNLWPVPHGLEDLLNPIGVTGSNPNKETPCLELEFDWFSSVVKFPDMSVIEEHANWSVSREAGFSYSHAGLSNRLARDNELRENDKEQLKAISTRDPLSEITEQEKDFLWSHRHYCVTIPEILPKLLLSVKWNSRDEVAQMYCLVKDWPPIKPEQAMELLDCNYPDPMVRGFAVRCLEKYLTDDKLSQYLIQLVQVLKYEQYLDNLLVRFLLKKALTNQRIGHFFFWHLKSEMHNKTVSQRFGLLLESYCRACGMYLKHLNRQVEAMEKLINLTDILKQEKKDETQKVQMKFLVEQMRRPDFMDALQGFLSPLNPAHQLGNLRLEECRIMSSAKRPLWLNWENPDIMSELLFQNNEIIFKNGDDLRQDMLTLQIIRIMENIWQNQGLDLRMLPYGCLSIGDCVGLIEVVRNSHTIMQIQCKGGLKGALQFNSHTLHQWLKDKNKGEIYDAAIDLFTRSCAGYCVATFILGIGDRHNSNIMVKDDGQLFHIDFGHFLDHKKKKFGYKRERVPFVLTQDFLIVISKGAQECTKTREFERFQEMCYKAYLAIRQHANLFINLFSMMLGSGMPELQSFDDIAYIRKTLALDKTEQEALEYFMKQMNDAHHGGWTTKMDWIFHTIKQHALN
Chain of PIK3CG (human) (P48736 whole entry, looked up): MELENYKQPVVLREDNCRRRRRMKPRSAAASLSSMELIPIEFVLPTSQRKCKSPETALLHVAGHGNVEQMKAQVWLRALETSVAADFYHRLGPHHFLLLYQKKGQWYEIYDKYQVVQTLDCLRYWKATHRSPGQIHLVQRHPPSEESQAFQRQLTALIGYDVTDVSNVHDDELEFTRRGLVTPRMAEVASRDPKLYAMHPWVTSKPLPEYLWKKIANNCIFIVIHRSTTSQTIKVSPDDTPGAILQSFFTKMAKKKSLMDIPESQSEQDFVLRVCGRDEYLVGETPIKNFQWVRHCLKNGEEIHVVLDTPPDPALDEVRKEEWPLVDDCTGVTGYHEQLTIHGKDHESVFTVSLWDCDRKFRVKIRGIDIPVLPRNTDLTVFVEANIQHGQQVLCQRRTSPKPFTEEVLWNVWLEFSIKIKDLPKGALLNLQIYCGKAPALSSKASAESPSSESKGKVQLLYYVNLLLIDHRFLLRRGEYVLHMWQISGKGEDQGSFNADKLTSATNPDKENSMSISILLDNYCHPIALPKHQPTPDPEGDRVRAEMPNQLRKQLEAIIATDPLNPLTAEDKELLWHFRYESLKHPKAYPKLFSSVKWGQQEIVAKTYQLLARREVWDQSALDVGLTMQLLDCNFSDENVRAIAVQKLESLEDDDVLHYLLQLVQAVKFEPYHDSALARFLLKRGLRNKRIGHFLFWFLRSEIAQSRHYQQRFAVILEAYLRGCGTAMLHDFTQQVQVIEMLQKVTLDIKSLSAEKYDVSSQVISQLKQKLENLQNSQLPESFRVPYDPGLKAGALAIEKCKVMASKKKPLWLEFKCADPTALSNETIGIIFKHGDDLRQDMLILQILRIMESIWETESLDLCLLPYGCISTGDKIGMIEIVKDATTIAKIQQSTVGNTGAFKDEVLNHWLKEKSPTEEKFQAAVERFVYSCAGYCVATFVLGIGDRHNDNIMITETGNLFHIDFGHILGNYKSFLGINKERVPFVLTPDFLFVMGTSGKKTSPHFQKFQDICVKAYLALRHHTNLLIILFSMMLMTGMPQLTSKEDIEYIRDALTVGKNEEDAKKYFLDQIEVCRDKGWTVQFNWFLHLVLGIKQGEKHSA
Chain of PIK3CD (Human) (O00329 whole entry, looked up): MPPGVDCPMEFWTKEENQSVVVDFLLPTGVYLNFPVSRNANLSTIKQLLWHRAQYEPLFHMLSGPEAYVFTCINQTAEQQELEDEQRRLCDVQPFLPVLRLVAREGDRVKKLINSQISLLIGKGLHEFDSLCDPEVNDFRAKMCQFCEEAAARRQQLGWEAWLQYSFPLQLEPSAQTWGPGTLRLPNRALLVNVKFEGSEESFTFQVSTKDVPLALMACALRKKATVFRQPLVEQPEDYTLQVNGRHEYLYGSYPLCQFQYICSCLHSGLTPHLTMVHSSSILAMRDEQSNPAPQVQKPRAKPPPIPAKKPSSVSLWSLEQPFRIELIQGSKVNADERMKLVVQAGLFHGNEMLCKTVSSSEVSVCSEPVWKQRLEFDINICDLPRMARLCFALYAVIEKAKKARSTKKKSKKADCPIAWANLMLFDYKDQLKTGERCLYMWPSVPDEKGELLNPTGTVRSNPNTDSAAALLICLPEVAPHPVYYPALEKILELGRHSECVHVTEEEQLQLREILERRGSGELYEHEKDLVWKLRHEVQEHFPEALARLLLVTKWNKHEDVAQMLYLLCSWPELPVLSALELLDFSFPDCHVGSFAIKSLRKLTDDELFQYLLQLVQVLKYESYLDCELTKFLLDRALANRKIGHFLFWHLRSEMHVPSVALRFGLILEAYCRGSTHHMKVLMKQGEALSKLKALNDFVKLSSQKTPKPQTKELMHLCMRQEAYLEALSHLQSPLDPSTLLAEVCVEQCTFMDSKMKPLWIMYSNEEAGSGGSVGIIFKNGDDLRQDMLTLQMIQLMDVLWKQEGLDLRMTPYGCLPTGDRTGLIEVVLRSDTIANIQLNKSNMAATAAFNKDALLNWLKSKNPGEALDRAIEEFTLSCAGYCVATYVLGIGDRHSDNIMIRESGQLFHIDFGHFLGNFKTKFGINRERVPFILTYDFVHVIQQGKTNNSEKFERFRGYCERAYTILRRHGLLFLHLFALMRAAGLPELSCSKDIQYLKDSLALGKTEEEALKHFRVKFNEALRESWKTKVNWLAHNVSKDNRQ

Turning to `Cc1nc(NC(=O)N2CC(C#N)C2)sc1-c1ccc(S(C)(=O)=O)c(F)c1`, the concentration for half-maximal inhibition (IC50) against PIK3CA (human) is 0.19 µM; against PIK3CG (human), 0.195 µM.
`Cc1nc(NC(=O)NCC(=O)N(C)C)sc1-c1ccc(S(C)(=O)=O)c(F)c1`: the values for the IC50 on PIK3CA (human), against PIK3CD (Human) and at PIK3CG (human) were 0.009 µM, 0.028 µM and 0.012 µM, respectively.
The corresponding values for `Cc1nc(NC(=O)NCCC(=O)OC(C)(C)C)sc1-c1ccc(S(C)(=O)=O)c(F)c1` are 3.02 µM, 0.626 µM and 0.016 µM.
Take `Cc1nc(NC(=O)NCCS(C)(=O)=O)sc1-c1ccc(F)c(S(C)(=O)=O)c1`: the IC50 at PIK3CA (human) amounted to 0.218 µM; at PIK3CD (Human) it was 0.637 µM; on PIK3CG (human), 0.177 µM.
On to `Cc1nc(NC(=O)NCCc2cn(C(C)C)cn2)sc1-c1ccc(S(C)(=O)=O)c(F)c1`, for which the half-maximal inhibitory concentration (IC50) at PIK3CA (human) amounted to 1.5 µM; on PIK3CD (Human), 0.42 µM; on PIK3CG (human) it was 0.044 µM.
The corresponding values for `CCn1cnc(CCNC(=O)Nc2nc(C)c(-c3ccc(S(C)(=O)=O)c(F)c3)s2)c1` are 0.934 µM, 2.15 µM and 0.038 µM.
Regarding `CCc1cnc(CCNC(=O)Nc2nc(C)c(-c3ccc(S(C)(=O)=O)c(-n4ccnc4)c3)s2)o1`, the IC50 at PIK3CA (human) worked out at 0.156 µM; against PIK3CD (Human), 0.17 µM; at PIK3CG (human) it was 0.032 µM.
As for `Cc1nc(NC(=O)NCCC(=O)OC(C)(C)C)sc1-c1ccc(S(C)(=O)=O)c(C(F)(F)F)c1`, the IC50 was determined as 2.06 µM against PIK3CA (human), 2.62 µM against PIK3CD (Human) and 0.213 µM at PIK3CG (human).
In the same order, the values of `Cc1nc(NC(=O)NCCO)sc1-c1ccc(S(C)(=O)=O)c(C(F)(F)F)c1` are 0.035 µM, 0.18 µM and 0.047 µM.
The corresponding values for `CCc1nnc(CCNC(=O)Nc2nc(C)c(-c3ccc(S(C)(=O)=O)c(F)c3)s2)o1` are 0.839 µM, 3.79 µM and 0.074 µM.
